{"source": "patent US8349553B2", "about": "“Jasmonate based assays for identifying compounds that selectively inhibit mitochondrial bound hexokinases” (Ramot at Tel Aviv University Ltd., priority 2007, dated 2013)", "key": {"[1]": {"test_system": "mitochondria-bound hexokinase (mitochondrial fraction of Molt-4 cells)", "assay": "Hexokinase detachment assay, mitochondrial fraction of Molt-4 cells", "assay_type": "biochemical, human", "details": "Molt-4 mitochondrial fraction; 30 minutes at 37° C.", "description": "Mitochondrial fraction was prepared by mechanical lysis and differential centrifugation. All stages were performed on ice. Cells or extracted tissues were washed with PBS and disrupted by homogenization in extraction buffer (Sucrose 250 mM, HEPES-NaOH 10 mM, pH 7.2) freshly supplemented with 0.1 mM EDTA and Protease Inhibitors cocktail (Sigma). For each gram of cells or tissue, 4 volumes of extraction buffer were applied. The homogenate volume was doubled with the extraction buffer, and tissue and cell debris as well as nuclei were pelleted by centrifugation of 1,000 g for 10 minutes. The supernatant was further spun at 13,000 g for 10 minutes twice. Endoplasmic reticulum layer was removed. The pellet, designated as the mitochondrial fraction, was suspended in the appropriate buffer, depending on the assay for which the mitochondrial fraction was prepared. Mitochondrial fractions were used immediately or stored at −196° C. […] Activity of hexokinase in the supernatant (i.e., activity of the detached hexokinase) was determined spectrophotometrically at 340 nm. […] Mitochondrial fractions isolated from different cancer cells, namely Molt-4 cells, BCL-1 leukemic cells and B16 melanoma tumors were incubated for 30 minutes at 37° C., and the activity of unbound hexokinase was measured and compared to the activity of spontaneously (control) detached hexokinase. […]"}, "[2]": {"test_system": "CT26 cells transfected with pcDNA3-HKII or pcDNA3", "description": "Cell death was determined by trypan blue exclusion. […] Alternatively, cytotoxicity was determined using hemacolor staining. Upon completion of a given experiment, cells were stained and the percentage of dead (detached) cells was determined spectrophotometrically.\nCT26 cells were transfected with pcDNA3-HKII or pcDNA3, using FuGene HD transfection reagent (Roche, Basel, Switzerland), according to the manufacturer's instruction followed by selection using G418.\nTo examine the effect of hexokinase over-expression on methyl jasmonate action, CT26 cells were transfected with plasmids, pcDNA3-HKII or pcDNA3, encoding for hexokinase II over-expression and a control plasmid, respectively (Zaid, 2005). Cells were seeded in 96-well plates and allowed to adhere. Cells were exposed to methyl jasmonate for 60 minutes prior to ATP determination (FIG. […] 9B)."}, "BCL-1 leukemic cells": {"test_system": "BCL-1 leukemic cells", "assay": "Cellular ATP levels (CellTiter-Glo), BCL-1", "assay_type": "cell-based, murine", "details": "60 minutes of exposure, various concentrations", "description": "The CellTiter-Glo™ Luminescent Cell Viability Assay (Promega, Madison, Wis., U.S.A.) was employed (Fingrut, 2005). Upon completion of a given experiment, plates were equilibrated to room temperature. CellTiter-Glo™ reagent containing luciferin and luciferase was added to each well and the plates were mixed on an orbital shaker for 2 minutes to induce cell lysis. In the presence of ATP, Mg^2+ and molecular oxygen, mono-oxidation of luciferin is catalyzed by luciferase, generating a luminescence signal. Cells were then incubated for 10 minutes at room temperature to stabilize the luminescence signal. Luminescence was recorded using Kodak digital science—Image station 440 CD. Luminescence is directly proportional to ATP concentration. ATP depletion (% of control) was calculated in the following way: {(luminescence of control cells−luminescence of drug-treated cells)/luminescence of control cells}×100. In order to test the correlation between cellular ATP levels and the release of hexokinase from mitochondrial fraction different cancer cells, namely Molt-4 cells, BCL-1 leukemic cells and B16 melanoma tumors were exposed to various methyl jasmonate concentrations. […] CT26 and Molt-4 cells were then seeded in 24 well plates. CT26 cells were allowed to adhere over night. Cells were exposed to methyl jasmonate (MJ; 3 mM) for 1 hour. Trypan blue exclusion test was performed and cells were counted."}, "[3]": {"target": "T1, mitochondria-bound hexokinase (mitochondrial fraction isolated from mouse brain) (Mus musculus, UniProt P17710)", "T1 construct": "detach hexokinase from mitochondrial fraction isolated from mouse brain; from tissue; host or cells: mouse brain (mitochondrial fraction)", "T1 sequence (P17710 1-918 isoform P17710-3)": "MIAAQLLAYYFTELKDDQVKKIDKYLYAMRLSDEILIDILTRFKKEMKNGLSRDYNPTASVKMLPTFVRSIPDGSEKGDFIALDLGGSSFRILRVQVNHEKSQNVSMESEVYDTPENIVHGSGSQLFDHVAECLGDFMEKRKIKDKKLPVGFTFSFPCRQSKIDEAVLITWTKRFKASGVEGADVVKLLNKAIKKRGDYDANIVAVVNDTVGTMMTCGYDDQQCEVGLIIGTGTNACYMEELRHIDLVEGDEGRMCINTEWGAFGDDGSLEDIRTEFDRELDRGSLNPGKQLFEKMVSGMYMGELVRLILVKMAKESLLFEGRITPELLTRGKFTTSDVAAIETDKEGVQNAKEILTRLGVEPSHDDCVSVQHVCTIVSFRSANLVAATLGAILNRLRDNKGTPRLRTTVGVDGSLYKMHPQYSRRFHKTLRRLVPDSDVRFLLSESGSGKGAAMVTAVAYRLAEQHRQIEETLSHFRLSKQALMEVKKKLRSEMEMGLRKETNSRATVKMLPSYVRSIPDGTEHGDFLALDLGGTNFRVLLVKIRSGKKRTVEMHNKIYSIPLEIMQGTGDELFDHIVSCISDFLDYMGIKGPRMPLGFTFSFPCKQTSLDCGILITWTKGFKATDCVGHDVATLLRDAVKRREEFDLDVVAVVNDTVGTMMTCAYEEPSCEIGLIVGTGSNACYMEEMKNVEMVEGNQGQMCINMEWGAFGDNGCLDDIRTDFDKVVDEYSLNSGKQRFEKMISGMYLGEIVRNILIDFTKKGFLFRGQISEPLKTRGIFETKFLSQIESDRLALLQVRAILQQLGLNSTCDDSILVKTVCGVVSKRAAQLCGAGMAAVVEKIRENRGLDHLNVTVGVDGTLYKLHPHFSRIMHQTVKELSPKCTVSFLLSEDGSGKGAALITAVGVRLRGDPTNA", "assay": "Hexokinase detachment assay, mitochondrial fraction of mouse brain", "assay_type": "biochemical", "quoted_text": "To determine the amount of hexokinase detached from the mitochondrial fraction by different agents, mitochondria were incubated with the agent of interest and pelleted by centrifugation. Activity of hexokinase in the supernatant (i.e., activity of the detached hexokinase) was determined spectrophotometrically at 340 nm. The reaction couples the ADP formation by hexokinase, consuming the ADP for pyruvate formation by pyruvate kinase, and reducing the pyruvate with NADH by lactate dehydrogenase. Briefly, mitochondria were suspended in incubation buffer (HEPES pH 7.4 20 mM, Sucrose 0.25M, Glucose 10 mM, KCl5 mM, MgCl2 10 mM; 0.2 mg/test, 100 μL/test) and incubated as described below. Mitochondria-bound hexokinase was precipitated by centrifugation at 20,000 g for 10 minutes at 4° C. The activity of hexokinase in the supernatant fraction was assayed in reaction buffer (250 μL; HEPES pH 7.2 20 mM, MgCl2 5 mM, KCl 5 mM, glucose 10 mM) freshly supplemented with pyruvate kinase (1 U/ml), lactate dehydrogenase (1 U/ml), ATP (1 mM), phospho(enol)pyruvate (1 mM), NADH (0.18 mg/ml). […] Mitochondrial fractions were incubated for either 10, 30 or 60 minutes at 37° C. The activity of unbound hexokinase was measured and compared to the activity of spontaneously (control) detached hexokinase."}, "CT26 cells": {"test_system": "CT26 cells", "assay": "Trypan blue exclusion test, CT26", "assay_type": "cell-based, murine", "details": "3 mM, 1 hour", "description": "Cell death was determined by trypan blue exclusion. […] Alternatively, cytotoxicity was determined using hemacolor staining. […] In order to test the correlation between cellular ATP levels and the release of hexokinase from mitochondrial fraction different cancer cells, namely Molt-4 cells, BCL-1 leukemic cells and B16 melanoma tumors were exposed to various methyl jasmonate concentrations. […] CT26 and Molt-4 cells were then seeded in 24 well plates. CT26 cells were allowed to adhere over night. Cells were exposed to methyl jasmonate (MJ; 3 mM) for 1 hour. Trypan blue exclusion test was performed and cells were counted."}, "[4]": {"test_system": "rabbit immunoglobulin G (Rb IgG)", "assay": "Surface plasmon resonance, irrelevant protein control", "assay_type": "binding", "details": "6 mM and 3 mM", "description": "SPR using ProteOn-EP5 (Bio-Rad, Hercules, Calif., USA) system has been applied to study the direct interaction of methyl jasmonate with hexokinase. This system allowed measuring ligand-analyte interactions in a 6×6 format in real time. Purified rat brain HKI and rabbit immunoglobulin G (Rb IgG; ligands) were diluted in 10 mM Na acetate pH 4 and 4.5, respectively, and coupled to a GLM sensor surface activated with 37.5 mg/ml N-Ethyl-N′-(3′ dimethylaminopropyl) carbodiimide hydrochloride and 7.5 mg/ml N-hydroxysuccinimide. HKI and IgG were added to saturate the chip at 100 μg/ml. Remaining reactive groups on the chip were then inactivated with 1 M ethanolamine pH 8.5. […] Methyl jasmonate and jasmonic acid (analytes) were diluted in running buffer (PBS X 1 with 0.005% Tween and 5% DMSO) and injected onto the sensor chip at varying concentrations. All experiments were performed at flow rate of 50 μl/min, at 25° C."}}}
{"smiles": "CC/C=C\\CC1C(=O)CCC1CC(=O)OC", "note": "(stereo not shown) [methyl jasmonate]", "values": [{"measurement": "detachment of hexokinase (activity of unbound hexokinase compared to control)", "setting": "[1]", "value": "detached hexokinase from mitochondrial fraction isolated from the three different cancer cells"}, {"measurement": "cytotoxicity (hemacolor), hexokinase II over-expressing vs. control cells", "setting": "[2]", "value": "decreased in cells with higher expression of hexokinase II"}, {"measurement": "cellular ATP level", "setting": "BCL-1 leukemic cells", "value": "significant and dose-dependent decrease of cellular ATP"}, {"measurement": "detachment of hexokinase, time dependence", "setting": "[3]; 3 mM, 10, 30 or 60 minutes at 37° C.", "value": "time-dependent"}, {"measurement": "detachment of hexokinase, dose dependence", "setting": "[3]; 30 minutes of incubation", "value": "dose dependent"}, {"measurement": "live/dead cells by Trypan blue exclusion", "setting": "CT26 cells", "value": "still alive after 60 minutes"}, {"measurement": "binding to immobilized Rb IgG (SPR)", "setting": "[4]", "value": "binds to hexokinase but not to Rb IgG"}]}
